# Assay results taken from patent US8586752B1, “Crystalline S-omeprazole strontium hydrate, method for preparing same, and pharmaceutical composition containing same” (Hanmi Science Co., Ltd, priority 2005, dated 2013).
# Like-named read-outs stand apart in the source and are kept apart here.
# Columns and labels:
# Water-solubility test = assay type: physicochemical; conditions: for Solubility: deionized water to saturation, 25° C., HPLC condition A; for Saturation pH: saturated solution in deionized water
# Protocol: The S-omeprazole strontium tetrahydrate of the present invention and the S-omeprazole magnesium trihydrate were each dissolved in deionized water to saturation. The water-solubility of each of the saturated solutions was analyzed by HPLC under the previously described condition A and the amount of each salt hydrate dissolved was measured.
# Hygroscopicity test = assay type: physicochemical; conditions: for Moisture content: exposed
# Protocol: The inventive S-omeprazole strontium was exposed in the naked state at 25 to 40° C. and 40 to 90% relative humidity for a period of over 15 days. The moisture contents of the inventive salt measured with a Karl-Fisher titrator at storage time 0, 3, 7 and 15 days are shown in Table 4.
# [1] = Heat stability test of the inventive salt; assay type: physicochemical; conditions: for Amount of titrated S-omeprazole: sealed, 60° C. and 75% relative humidity
# Protocol: The salt of Example 1 was stored in the sealed state under a stressed condition of 60° C. and 75% relative humidity, and the remaining amounts of active S-omeprazole after 7, 14, 21 and 28 days were measured by HPLC condition A. The results are shown in Table 5.
# [2] = Storage stability under long-term, accelerated aging and stressed conditions; assay type: physicochemical; conditions: 25° C./60% RH exposed; 40° C./75% RH exposed; 60° C./75% RH closed; 2 to 4 weeks
# rats = conditions: dose of 633 mg/kg/day; cited from earlier work
compound,measurement,setting,value
"COc1ccc2nc([S@@+]([O-])Cc3ncc(C)c(OC)c3C)[nH]c2c1 [S-omeprazole strontium tetrahydrate, S-omerprazole strontium tetrahydrate]",Solubility,"Water-solubility test; 25 °C, water, thermodynamic from solid, read-out: Solubility",~17.6 mg/mL
same,Solubility,Water-solubility test,17.6 mg/mL
same,Saturation pH,Water-solubility test,10.2
same,Water solubility relative to S-omeprazole magnesium trihydrate,Water-solubility test; times higher than S-omeprazole magnesium trihydrate,at least 10 times
same,Moisture content,"Hygroscopicity test; 40% relative humidity (25° C.), 0 day",9.0 wt %
same,Moisture content,"Hygroscopicity test; 40% relative humidity (25° C.), 3 days",8.9 wt %
same,Moisture content,"Hygroscopicity test; 40% relative humidity (25° C.), 7 days",8.7 wt %
same,Moisture content,"Hygroscopicity test; 40% relative humidity (25° C.), 15 days",8.8 wt %
same,Moisture content,"Hygroscopicity test; 60% relative humidity (25° C.), 0 day",9.0 wt %
same,Moisture content,"Hygroscopicity test; 60% relative humidity (25° C.), 3 days",9.0 wt %
same,Moisture content,"Hygroscopicity test; 60% relative humidity (25° C.), 7 days",9.2 wt %
same,Moisture content,"Hygroscopicity test; 60% relative humidity (25° C.), 15 days",9.1 wt %
same,Moisture content,"Hygroscopicity test; 75% relative humidity (40° C.), 0 day",9.0 wt %
same,Moisture content,"Hygroscopicity test; 75% relative humidity (40° C.), 3 days",8.9 wt %
same,Moisture content,"Hygroscopicity test; 75% relative humidity (40° C.), 7 days",9.0 wt %
same,Moisture content,"Hygroscopicity test; 75% relative humidity (40° C.), 15 days",8.9 wt %
same,Moisture content,"Hygroscopicity test; 90% relative humidity (35° C.), 0 day",9.0 wt %
same,Moisture content,"Hygroscopicity test; 90% relative humidity (35° C.), 3 days",9.2 wt %
same,Moisture content,"Hygroscopicity test; 90% relative humidity (35° C.), 7 days",9.3 wt %
same,Moisture content,"Hygroscopicity test; 90% relative humidity (35° C.), 15 days",9.2 wt %
same,Hygroscopicity,Hygroscopicity test; under a highly humid condition,less hygroscopic
same,Initial moisture content,Hygroscopicity test; under a low humidity condition,maintained
same,Amount of titrated S-omeprazole,[1]; 7 days,997 µg/mg
same,Amount of titrated S-omeprazole,[1]; 14 days,998 µg/mg
same,Amount of titrated S-omeprazole,[1]; 21 days,997 µg/mg
same,Amount of titrated S-omeprazole,[1]; 28 days,997 µg/mg
same,Amount of titrated S-omeprazole,[1]; Initial,997 µg/mg
same,Heat stability,"[1]; summary of Table 5 (60° C., 75% relative humidity, sealed, up to 28 days)",highly stable
same,Stability on storage,[2],"maintain the initial moisture content, purity and crystallinity"
"[Sr+2] [strontium, Strontium]",Safety,rats,no safety problems
"COc1ccc2[n-]c([S+]([O-])Cc3ncc(C)c(OC)c3C)nc2c1.COc1ccc2[n-]c([S+]([O-])Cc3ncc(C)c(OC)c3C)nc2c1.O.O.O.[Mg+2] (centres unmarked) [Magnesium trihydrate, S-Omeprazole Magnesium Trihydrate, reference compound]",Solubility,Water-solubility test,1.5 mg/mL
same,Saturation pH,Water-solubility test,9.9
